Measured values from patent US5399565A, “Pyrazolidinone CCK and gastrin antagonists and pharmaceutical formulations therof” (priority 1993, dated 1995).

Key:
[1] = Auditory startle response, nicotine withdrawal; format: in vivo, Male Long Evans rats
Excerpt: (§1) In humans, withdrawal from the chronic administration of benzodiazepines or nicotine can result in a variety of undesirable side-effects, including anxiety. […] Withdrawal from chronic nicotine administration also has anxiogenic effects as indicated by decreased time spent in the light compartment of a light/dark box (Costall et al., Ibid) and increased auditory startle responses. Applicants examined the effects of compounds of this invention on the auditory startle response of rats undergoing withdrawal from the chronic administration of diazepam or nicotine.
(§2) Male Long Evans rats (200-220 g; Harlan Sprague Dawley, Columbus, Ind.) were individually housed in a controlled environment on a 12 hour light-dark cycle and were given free access to food (Purina Rodent Chow) and water. All treatment groups contained 8-10 rats.
(§3) Rats were anesthetized with halothane and Alzet osmotic minipumps (Alza Corporation, Palo Alto, Calif., Model 2ML2) were implanted subcutaneously. Diazepam (Sigma Chemical; St. Louis, Mo.) was suspended in 40% polyethylene glycol, 10% ethanol and Tween 80. Nicotine ditartrate was dissolved in physiological saline. Pumps were filled with either diazepam (20 mg/kg/day), nicotine ditartrate (6 mg/kg base/day), or the appropriate vehicle. Twelve days following implantation of pumps, rats were anesthetized with halothane and the pumps were removed.
(§4) The sensory motor reactions [auditory startle response (peak amplitude, Vmax)]of individual rats was recorded using San Diego Instruments startle chambers (San Diego, Calif.). Startle sessions consisted of a 5-minute adaptation period at a background noise level of 70±2 dBA immediately followed by 25 presentations of auditory stimuli (120±3 dBA noise, 50 ms duration) presented at 8-second intervals. Peak startle amplitudes were then averaged for all 25 presentations of stimuli for each session. Auditory startle responding was evaluated daily at 24 hour intervals on days 1-4 following drug withdrawal.
(§5) The compound of Example 141 was administered 60 minutes before startle testing at doses of 0, 10, 30, 60, or 100 mg/kg.

brain CCK receptor = biological target: T1, brain CCK receptor (Mus musculus, UniProt P56481); assay: CCK receptor binding, mouse brain membranes (125I-CCK-8 sulfate)
T1 construct: from tissue; host or cells: forebrain membranes of male CF-1 mice
T1 sequence (P56481 1-453): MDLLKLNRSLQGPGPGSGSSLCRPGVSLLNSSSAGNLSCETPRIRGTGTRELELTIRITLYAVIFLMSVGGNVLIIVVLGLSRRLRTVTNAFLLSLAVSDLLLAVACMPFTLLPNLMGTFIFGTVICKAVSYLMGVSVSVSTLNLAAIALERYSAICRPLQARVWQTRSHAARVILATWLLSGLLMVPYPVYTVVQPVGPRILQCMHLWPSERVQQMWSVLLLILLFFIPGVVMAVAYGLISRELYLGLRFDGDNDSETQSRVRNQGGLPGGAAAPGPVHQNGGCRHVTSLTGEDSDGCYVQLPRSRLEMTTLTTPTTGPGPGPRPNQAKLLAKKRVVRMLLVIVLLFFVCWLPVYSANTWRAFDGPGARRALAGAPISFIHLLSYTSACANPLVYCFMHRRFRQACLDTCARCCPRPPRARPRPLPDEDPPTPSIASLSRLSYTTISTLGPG

[2] = Auditory startle response, benzodiazepine (diazepam) withdrawal; format: in vivo, Male Long Evans rats; details: for benzodiazepine withdrawal-induced increase in sensory responsiveness: 60 minutes before startle testing, days 1-4
Excerpt: as §1, §2, §3, §4, §5

Catalepsy bar test = format: in vivo, Male Sprague-Dawley rats
Experimental: Acute administration of classical antipsychotic drugs results in catalepsy. Production of catalepsy is thought to be predictive of Parkinson-like extrapyramidal side effects. Sanberg, et al., Neuroscience 102:748-759 (1988). […] Haloperidol, a classical anti-psychotic, was used as a reference.
Male Sprague-Dawley rats (290-350 g) were used in these studies. Catalepsy was evaluated using the bar test (Sanberg et al., Neurosci., 102,748-759, (1988); Ferre, et al., Pharm. Biochem. Beh., 35, 753-757 (1990). The bar apparatus consisted of a horizontal metal rod with a diameter of 1 cm, which was positioned 10 cm from the floor to the top of the bar. The animal was gently placed in front of the bar, and then its forepaws were lifted to rest on the bar. The length of time, in seconds, until both forepaws touched the floor (3 minutes maximum allowed) was recorded. A baseline measurement was taken prior to injection, and catalepsy was evaluated every 60 minutes for three hours after injection of the compounds (Table IV). In a separate set of experiments, the compounds of this invention were administered 60 minutes prior to the administration of haloperidol, and catalepsy was evaluated every 60 minutes for three hours after the haloperidol injection. Catalepsy scores of drug-treated animals were compared to haloperidol- or vehicle-treated animals at each time point using the analysis of variance (ANOVA) (Table V). Haloperidol (Research Biochemicals Inc.) was dissolved in distilled water and a small amount of 0.1N lactic acid. The compounds of this invention were prepared in 50% ethanol. The volume of all injections was 1 ml/kg.

[3] = 2:1 dmf:h2o
[4] = biological target: T2, peripheral type CCK receptors in rat pancreas (Rattus norvegicus, UniProt P30551); assay: Binding to peripheral type CCK receptors in rat pancreas (3H-L-364,718); details: at 10 μM; read-out: Pancreas Percent Inhibition
T2 construct: Pancreas was obtained from male Sprague-Dawley rats; from tissue; host or cells: pancreas membranes of male Sprague-Dawley rats
T2 sequence (P30551 1-444): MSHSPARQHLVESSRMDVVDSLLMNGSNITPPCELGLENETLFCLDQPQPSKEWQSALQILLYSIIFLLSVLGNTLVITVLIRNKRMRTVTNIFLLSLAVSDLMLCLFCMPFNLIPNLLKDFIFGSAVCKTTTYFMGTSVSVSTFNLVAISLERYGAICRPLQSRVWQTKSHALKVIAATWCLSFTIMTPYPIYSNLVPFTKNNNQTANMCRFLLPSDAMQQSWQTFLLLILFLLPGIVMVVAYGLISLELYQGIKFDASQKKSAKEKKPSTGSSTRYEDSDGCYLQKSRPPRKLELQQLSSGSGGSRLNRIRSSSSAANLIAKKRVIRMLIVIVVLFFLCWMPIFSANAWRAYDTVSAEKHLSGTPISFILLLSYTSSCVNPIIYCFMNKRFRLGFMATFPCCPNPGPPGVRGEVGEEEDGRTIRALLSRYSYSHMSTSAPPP
How it was run: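 Washed pancreatic membranes from male Sprague-Dawley rats (150-200 g) incubated 1 h at room temperature with 0.4-0.6 nM ³H-L-364,718 in 50 mM Tris pH 7.4, 5 mM MgCl2, bacitracin, 5 mM DTT. Bound radioactivity counted after filtration; nonspecific binding defined with 100 nM L-364,718; IC50 determined.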

[5] = CCK-induced gall bladder emptying in anesthetized ferrets; format: in vivo, male ferrets
Experimental: (§6) Experiments were performed on fasted (18 hour) male ferrets weighing 0.8-1.5 kilograms (Triple F Supplier) and water was given ad lib. Anesthesia was induced with urethane (0.2 ml/100 grams body weight j.p., Sigma Chemical Company), a tracheal tube was inserted to provide a clear airway for spontaneous breathing and the body temperature was maintained at 38° using a homeothermic blanket (Harvard Apparatus). The left jugular vein was cannulated (PE-50, i.d. 0.58 mm, o.d. 0.97 mm) for the subsequent administration of drugs and the left carotid artery was cannulated (PE-90, i.d. 0.86 mm, o.d. 1.277 mm) for the continual measurement of blood pressure and heart rate. Following a laporatomy, a catheter (PE-50) was inserted into the gall bladder through the bile duct and connected via a pressure transducer to a chart recorder for the visual display. The colon was located and a strain gauge transducer was sutured in the circular muscle direction to monitor contractile state. Before each experiment the blood pressure, heart rate and all motility recording transducers were calibrated for subsequent recording of data.
Following a 30 minute stabilization period, cholecystokinin 8-sulfated (CCK8-S) was given at doses of 100, 300 and 700 ng/kg intravenously (iv), with a 10 minute stabilization period in between CCK8-S doses. The test compound was administered (iv) after another 30 minute stabilization period, and the CCK8-S dose-response curve was repeated five minutes later.
Test compound vehicle was 3 drops of DMSO (99.9%), 0.5 ml 0.1N NaOH, saline.

[6] = CCK-induced colonic motility in anesthetized ferrets; format: in vivo, male ferrets
Experimental: as §6
Following a 30 minute stabilization period, cholecystokinin 8-sulfated (CCK8-S) was given at doses of 100, 300 and 700 ng/kg intravenously (iv), with a 10 minute stabilization period in between CCK8-S doses. […]

## O=C1NN(C(=O)Nc2ccc(Br)cc2)[C@@H](c2ccccc2)[C@@H]1c1ccccc1 (single isomer, unassigned) [Example 141, (+)-trans-1-[(4-Bromophenyl)aminocarbonyl]-4,5-diphenyl-3pyrazolidinone]
[1]; 10 mg/kg, days 1-4
  nicotine withdrawal-induced increase in startle response: significantly reduced the nicotine withdrawal-induced increase in startle response on all days except day 4
[1]; 30 mg/kg, days 1-4
  nicotine withdrawal-induced increase in sensory responsiveness: significantly reduced the nicotine withdrawal-induced increase in sensory responsiveness on all days examined
[1]; 60 mg/kg, days 1-4
  nicotine withdrawal-induced increase in sensory responsiveness: significantly reduced the nicotine withdrawal-induced increase in sensory responsiveness on all days examined
Brain CCK receptor; mouse brain membranes, read-out: Brain IC50
  IC50: 16 nM
[2]; 60 mg/kg
  benzodiazepine withdrawal-induced increase in sensory responsiveness: significantly reduced the benzodiazepine withdrawal-induced increase in sensory responsiveness on all days examined
[2]; 100 mg/kg
  benzodiazepine withdrawal-induced increase in sensory responsiveness: significantly reduced the benzodiazepine withdrawal-induced increase in sensory responsiveness on all days examined
Catalepsy bar test; 10 mg/kg, 60 Min
  Catalepsy Score: 3.8 ± 0.9 s
Catalepsy bar test; 10 mg/kg, 120 Min
  Catalepsy Score: 3.3 ± 1.2 s
Catalepsy bar test; 10 mg/kg, 180 Min
  Catalepsy Score: 4.6 ± 2.1 s
Catalepsy bar test; 10 mg/kg, Pre
  Catalepsy Score: 1.1 ± 0.2 s
Catalepsy bar test; 30 mg/kg, 60 Min
  Catalepsy Score: 2.6 ± 1.1 s
Catalepsy bar test; 30 mg/kg, 120 Min
  Catalepsy Score: 2.0 ± 0.6 s
Catalepsy bar test; 30 mg/kg, 180 Min
  Catalepsy Score: 4.9 ± 1.9 s
Catalepsy bar test; 30 mg/kg, Pre
  Catalepsy Score: 1.5 ± 0.3 s

## CN1C(=O)CN=C(c2ccccc2)c2cc(Cl)ccc21 [diazepam, reference compound]
[2]; 20 mg/kg/day, minipump, twelve days, withdrawal
  auditory startle response after cessation of chronic diazepam: significantly increased auditory startle responses

## 1-[(4-Bromophenyl)aminocarbonyl]-2-carboxymethyl-4,5-diphenyl-3-pyrazolidinone and 1-[(4-bromophenyl)aminocarbonyl]-3-carboxymethoxy-4,5-diphenyl-2-pyrazoline [Example 12]
[3]
  titration pKa: 4.8

## O=C1NN(C(=O)Nc2ccccc2)[C@@H](c2ccccc2)[C@@H]1c1ccccc1 (racemic) [Example 15, (±)-trans-1-phenylaminocarbonyl-4,5-diphenyl-3-pyrazolidinone]
Brain CCK receptor; at 10 μM, read-out: Brain Percent Inhibition
  inhibition at 10 µM: 69%
[4]
  inhibition at 10 µM: 10%
[5]; 1 mg/kg iv, CCK 300 ng/kg
  gall bladder emptying: not measurably altered
[5]; CCK-8 100 ng/kg
  alteration of CCK-induced gall bladder emptying: about 10%
[5]; in words
  effect on CCK-induced gall bladder emptying: without affecting CCK-induced gall bladder emptying
[6]; 1 mg/kg iv, CCK 300 ng/kg
  inhibition of CCK-induced colonic motility: 57%
[6]; CCK-8 100 ng/kg
  inhibition of colonic motility: ~75%

## CN1CCC[C@H]1c1cccnc1 [nicotine, reference compound]
[1]; 6 mg kg base/day, minipump, twelve days, withdrawal
  auditory startle response after cessation of chronic nicotine: significantly increased auditory startle responses
